# Test results published in patent US6495370B1, “Inhibition of glutathione transferase by haloenol lactones” (The Regents of the University of California, priority 1995, dated 2002).
# Where two headings read alike, the source gives them in different places.
# Tests used:
# Type in all cases: biochemical
# GST pi isozyme [1] = molecular target: T1, GST pi isozyme (Mus musculus, UniProt P19157); test: Time-dependent inhibition of GST pi with and without S-hexylglutathione; details: haloenol lactone 2 200 μM
# T1 construct: The three major mouse liver GST isoenzymes were purified according to established methods; from tissue; host or cells: liver of male CD-1 mice
# Protocol: FIG. 7: Inactivation of glutathione S-transferase (GST) pi isozyme by haloenol lactone 2. The GST concentration was 1.0 μM): ●, control; ▴, +haloenol lactone 2 (200 μM), no S-hexylglutathione; ▪, +haloenol lactone 2 (200 μM), +S-hexylglutathione (2,000 μM).
# Enzyme inhibition studies and enzyme assays for this experiment were performed as described in Example 3. S-hexylglutathione dissolved in a 0.1 M potassium phosphate buffer (pH 6.5) was added in the incubation solution. […] In this experiment, we incubated compound 2 with GST-pi isozyme in the presence of S-hexylglutathione (2,000 μM), a competitive inhibitor of GST. […] (See FIG. 7).
# GST pi isoenzyme [2] = molecular target: T2, GST pi isoenzyme (Mus musculus, UniProt P19157); test: Time-dependent inhibition of purified GST pi isoenzyme (GSH/CDNB activity assay); details: for enzyme activity of GST pi: 100 μM compound, GST 1.0 μM, after 5 minutes at 37° C.; for nature of inhibitory effect on GST pi isozyme: summary statement
# T2 construct: The three major mouse liver GST isoenzymes were purified according to established methods; from tissue; host or cells: liver of male CD-1 mice
# Protocol: (§1) The three major mouse liver GST isoenzymes were purified according to established methods. Male CD-1 mice, 25-35 g, were purchased from Charles River Breeding Laboratories, Inc. (Wilmington, Mass.). Animals were housed on autoclaved pine shavings in approved animal care facilities and fed ad libitum for 1 week prior to cervical dislocation.
# Mice were killed by cervical dislocation and livers were removed, rinsed with ice-cold 10 mM Tris buffer (pH 7.4) containing 0.25 M sucrose, 1 mM EDTA and 1 mM DTT (buffer A). The tissues were homogenized in buffer A (1 g tissue/2 mL buffer). Centrifugation and all subsequent purification steps were carried out at 4° C. The homogenate was centrifuged at 10,000 g for 30 min. The supernatant fraction was then collected and centrifuged at 100,000 g for 80 min. Supernatant was next passed through a Sephadex G-25 Column (100 cm×2.5 cm) which had been pre-equilibrated in 25 mM potassium phosphate buffer (pH 7.4) containing 1 mM EDTA and 1 mM DTT (buffer B). Column eluants were monitored at 280 nm using an Isco-UA5 detector. The elutant from the G-25 column containing GST activity was applied to an affinity column (11 cm×2.5 cm, GSH-linked agarose, Sigma) at a flow rate of 0.64 ml/min. The first two GST isozymes were eluted using a linear gradient (0-75 mM) of GSH in buffer b (250 mL×250 mL). The third peak containing activity towards CDNB was eluted by using a linear gradient of increasing pH (7.4-9.0) in buffer b which was 75 mM in GSH (150 mL×150 mL). The three main peaks of activity were recovered and pooled separately. Each pool was concentrated to 25-30 mL in an Amicon ultrafiltration cell (Amicon, Inc., Beverly, Mass., USA) with a PM 10 membrane and dialyzed against 4L nanopure water. Pooled proteins were analyzed by ESI/MS to determine purity and subunit molecular weight. […]
# (§2) For the enzyme inhibition studies, solutions of alpha, mu and pi glutathione S-transferase (1.0 μg/μl) were prepared in a 0.1 M potassium phosphate buffer (pH 6.5). […] Aliquots were withdrawn at 1, 3, 5, 8 and 12 min, and GST activity was measured using GSH and CDNB as substrates according to the method of Habig et al. (1974) J. Biol. Chem. 249:7130-7139.
# In brief, the activity of the enzyme was determined in a 0.1 M potassium phosphate buffer (pH 6.5) containing 1 mM GSH and 1 mM CDNB using an extinction coefficient of 9.6 mM^−1 cm^−1. […] The rate of product formation was monitored by measuring the change in absorbance at 340 nm using a Shimadzu PC-2101 uv-visible spectrophotometer (Shimadzu Scientific Instruments, Columbia, Md., USA). Specific activities are based on protein concentrations as determined by the Bradford protein determination kit from Biorad, Hercules, Calif., USA, using bovine serum albumin as a reference.
# GST alpha = molecular target: T3, GST alpha (Mus musculus, UniProt P30115); test: Time-dependent inhibition of purified GST alpha isoenzyme (GSH/CDNB activity assay); details: 100 μM compound, GST 1.0 μM, after 5 minutes at 37° C.
# T3 construct: The three major mouse liver GST isoenzymes were purified according to established methods; from tissue; host or cells: liver of male CD-1 mice
# T3 sequence (P30115 2-221 limits assumed): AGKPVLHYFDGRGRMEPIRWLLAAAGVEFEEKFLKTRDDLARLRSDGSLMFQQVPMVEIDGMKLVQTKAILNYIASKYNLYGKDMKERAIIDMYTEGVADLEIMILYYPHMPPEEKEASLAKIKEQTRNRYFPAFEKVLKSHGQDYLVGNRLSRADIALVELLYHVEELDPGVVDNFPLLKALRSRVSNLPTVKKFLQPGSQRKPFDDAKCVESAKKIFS
# Protocol: as §1
# (§3) Mice were killed by cervical dislocation and livers were removed, rinsed with ice-cold 10 mM Tris buffer (pH 7.4) containing 0.25 M sucrose, 1 mM EDTA and 1 mM DTT (buffer A). The tissues were homogenized in buffer A (1 g tissue/2 mL buffer). Centrifugation and all subsequent purification steps were carried out at 4° C. […] Column eluants were monitored at 280 nm using an Isco-UA5 detector. […] Pooled proteins were analyzed by ESI/MS to determine purity and subunit molecular weight. […]
# as §2
# (§4) In brief, the activity of the enzyme was determined in a 0.1 M potassium phosphate buffer (pH 6.5) containing 1 mM GSH and 1 mM CDNB using an extinction coefficient of 9.6 mM^−1 cm^−1. […]
# GST mu = molecular target: T4, GST mu (Mus musculus, UniProt P10649); test: Time-dependent inhibition of purified GST mu isoenzyme (GSH/CDNB activity assay); details: 100 μM compound, GST 1.0 μM, after 5 minutes at 37° C.
# T4 construct: The three major mouse liver GST isoenzymes were purified according to established methods; from tissue; host or cells: liver of male CD-1 mice
# T4 sequence (P10649 2-218 limits assumed): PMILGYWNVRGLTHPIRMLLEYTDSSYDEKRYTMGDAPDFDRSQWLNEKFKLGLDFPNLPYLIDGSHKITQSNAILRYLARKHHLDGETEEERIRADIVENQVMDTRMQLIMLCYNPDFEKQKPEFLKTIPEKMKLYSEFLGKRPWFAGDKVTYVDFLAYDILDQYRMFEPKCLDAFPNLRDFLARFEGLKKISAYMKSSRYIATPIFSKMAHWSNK
# Protocol: as §1, §3, §2, §4
# GST pi isoenzyme [3] = molecular target: T2, GST pi isoenzyme; test: Kinetic constants for inhibition of GST pi isoenzyme
# Protocol: Compounds 1 and 2 were synthesized and purified as described in Example 1, and GST pi isoenzyme was isolated from mouse liver as described in Example 2. Enzyme inhibition studies were performed as described in Example 3, except that four different concentrations of inhibitor were used. Enzyme assays were performed as described in Example 3.
# GST pi isozyme [4] = molecular target: T1, GST pi isozyme; test: Irreversible inhibition of GST pi: activity after incubation and exhaustive dialysis; details: 10-fold excess of compound, 37° C., 3 hours, then dialysis against 6 changes of water
# Protocol: The dialyzed protein sample was dried by lyophilization. The recovered protein was re-dissolved in water, and specific enzyme activity was determined by measuring the protein content and GST activity.
# [5] = GST pi 1.0 μM, 37° C., four inhibitor concentrations
# T1 sequence (P19157 2-210 limits assumed): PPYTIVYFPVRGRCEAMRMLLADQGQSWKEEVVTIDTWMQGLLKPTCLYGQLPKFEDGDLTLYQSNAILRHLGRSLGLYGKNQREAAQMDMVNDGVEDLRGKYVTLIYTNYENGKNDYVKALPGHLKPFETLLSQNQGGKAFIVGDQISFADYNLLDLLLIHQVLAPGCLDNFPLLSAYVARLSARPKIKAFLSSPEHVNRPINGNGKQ
# T2 sequence (P19157 2-210 limits assumed): as above
Compound,"effect of S-hexylglutathione on time-dependent inhibition of GST by compound 2 (GST pi isozyme [1]; S-hexylglutathione 2,000 μM, GST pi 1.0 μM)",enzyme activity of GST pi (GST pi isoenzyme [2]),nature of inhibitory effect on GST pi isozyme (GST pi isoenzyme [2]),enzyme activity of GST alpha remained (GST alpha),enzyme activity of GST mu remained (GST mu),kinact (GST pi isoenzyme [3]; [5]) [s⁻¹],"Ki (GST pi isoenzyme [3]; GST pi 1.0 μM, 37° C., four inhibitor concentrations, read-out: KI) [µM]","kinact/KI (GST pi isoenzyme [3]; GST pi, read-out: kinact/KI ratio (converted)) [M⁻¹ s⁻¹]",Ki (GST pi isoenzyme [3]) [µM],kinact/KI (GST pi isoenzyme [3]; read-out: kinact/KI ratio) [M⁻¹ s⁻¹],"time in which the enzyme was totally inactivated (GST pi isozyme [1]; GST 1.0 μM, no S-hexylglutathione) [min]",enzyme activity of modified GST remained relative to the control (GST pi isozyme [4]) [%],restoration of GST activity by exhaustive dialysis (GST pi isozyme [4])
"CCCCCCSC[C@H](NC(=O)CC[C@H](N)C(=O)O)C(=O)NCC(=O)O [S-hexylglutathione, reference compound]",completely suppressed,–,–,–,–,–,–,–,–,–,–,–,–
"O=C1O/C(=C/Br)CC1CC1OC1c1ccccc1 (stereo not drawn) [compound 1, 3-Cinnamyl-(α,β-epoxy)-5(E)-bromomethylidenetetrahydro-2-furanone]",–,completely inhibited,time-dependent and irreversible,about 80%,about 80%,0.0198,64.4,308,–,–,–,–,–
"O=C1O/C(=C/Br)CC1CC=Cc1ccccc1 (stereo not shown) [compound 2, 3-Cinnamyl-5(E)-bromomethylidenetetrahydro-2-furanone]",–,completely inhibited,time-dependent and irreversible,–,–,0.00933,–,–,86.7,108,8,7.8,not restored
